Measurements published in ChEMBL document CHEMBL3885881, “DrugMatrix”.

Organism: Rattus norvegicus
Assay: DrugMatrix - Regimen: Daily Repeat
Assay type: toxicity, organism-based, Sprague-Dawley
Parameters: regimen Daily Repeat, gender Male, age 6-8 weeks
Conditions: in vivo, po, route oral GAVAGE, vehicle .5 % CMC; for ABSOLUTE BASOPHIL / ABSOLUTE EOSINOPHIL / ABSOLUTE LYMPHOCYTE / ABSOLUTE MONOCYTE / ABSOLUTE SEGMENTED NEUTROPHIL / BASOPHIL / EOSINOPHIL / ERYTHROCYTE COUNT / HEMATOCRIT / HEMOGLOBIN / LEUKOCYTE COUNT / LYMPHOCYTE / MEAN CORPUSCULAR HEMOGLOBIN / MEAN CORPUSCULAR HEMOGLOBIN CONCENTRATION / MEAN CORPUSCULAR VOLUME / MONOCYTE / NEUTROPHIL / NUCLEATED RED BLOOD CELLS / PLATELET COUNT: tissue Blood; for ALANINE AMINOTRANSFERASE / ALBUMIN / ALKALINE PHOSPHATASE / ASPARTATE AMINOTRANSFERASE / BLOOD UREA NITROGEN / CARBON DIOXIDE / CHLORIDE / CHOLESTEROL / CREATINE PHOSPHOKINASE / CREATININE / GLUCOSE / LACTATE DEHYDROGENASE / LIPASE / PHOSPHORUS / POTASSIUM / SODIUM / TOTAL BILIRUBIN / TOTAL PROTEIN / URIC ACID: tissue Plasma
[1] = 200 mg/kg, 120 h, dose level Low, time 5 day
[2] = 1500 mg/kg, 72 h, dose level High, time 3 day
[3] = 1500 mg/kg, 120 h, dose level High, time 5 day

CCn1cc(C(=O)O)c(=O)c2cc(F)c(N3CCNCC3)cc21 [NORFLOXACIN]
ABSOLUTE BASOPHIL [1]: 0 CELLS/uL | ABSOLUTE EOSINOPHIL [1]: 0 CELLS/uL | ABSOLUTE LYMPHOCYTE [1]: 13445.67 CELLS/uL | ABSOLUTE MONOCYTE [1]: 43.67 CELLS/uL | ABSOLUTE SEGMENTED NEUTROPHIL [1]: 644 CELLS/uL | BASOPHIL [1]: 0% | EOSINOPHIL [1]: 0% | ERYTHROCYTE COUNT [1]: 5.72 x10E6/uL | HEMATOCRIT [1]: 35.23% | HEMOGLOBIN [1]: 14.43 G/DL | LEUKOCYTE COUNT [1]: 14.13 x10E3/uL | LYMPHOCYTE [1]: 95% | MEAN CORPUSCULAR HEMOGLOBIN [1]: 25.37 pg | MEAN CORPUSCULAR HEMOGLOBIN CONCENTRATION [1]: 41 G/DL | MEAN CORPUSCULAR VOLUME [1]: 61.8 fL | MONOCYTE [1]: 0.33% | NEUTROPHIL [1]: 4.67% | NUCLEATED RED BLOOD CELLS [1]: 0.33 /100WBC | PLATELET COUNT [1]: 1391.67 x10E3/uL | ALANINE AMINOTRANSFERASE [1]: 60.33 u/L | ALBUMIN [1]: 4.43 G/DL | ALKALINE PHOSPHATASE [1]: 370.33 u/L | ASPARTATE AMINOTRANSFERASE [1]: 99 u/L | BLOOD UREA NITROGEN [1]: 15.67 mg/dL | CARBON DIOXIDE [1]: 26.67 mmol/L | CHLORIDE [1]: 102 MEQ/L | CHOLESTEROL [1]: 45.67 mg/dL | CREATINE PHOSPHOKINASE [1]: 920 u/L | CREATININE [1]: 0.25 mg/dL | GLUCOSE [1]: 138.67 mg/dL | LACTATE DEHYDROGENASE [1]: 195.67 u/L | LIPASE [1]: 9.33 u/L | PHOSPHORUS [1]: 12.13 mg/dL | POTASSIUM [1]: 6.16 MEQ/L | SODIUM [1]: 145 MEQ/L | TOTAL BILIRUBIN [1]: 0.2 mg/dL | TOTAL PROTEIN [1]: 6.3 G/DL | URIC ACID [1]: 1.53 mg/dL | ABSOLUTE BASOPHIL [2]: 0 CELLS/uL | ABSOLUTE EOSINOPHIL [2]: 108.33 CELLS/uL | ABSOLUTE LYMPHOCYTE [2]: 13773 CELLS/uL | ABSOLUTE MONOCYTE [2]: 98.33 CELLS/uL | ABSOLUTE SEGMENTED NEUTROPHIL [2]: 1087 CELLS/uL | BASOPHIL [2]: 0% | EOSINOPHIL [2]: 0.67% | ERYTHROCYTE COUNT [2]: 5.77 x10E6/uL | HEMATOCRIT [2]: 37.03% | HEMOGLOBIN [2]: 14.53 G/DL | LEUKOCYTE COUNT [2]: 15.07 x10E3/uL | LYMPHOCYTE [2]: 91.33% | MEAN CORPUSCULAR HEMOGLOBIN [2]: 25.2 pg | MEAN CORPUSCULAR HEMOGLOBIN CONCENTRATION [2]: 39.23 G/DL | MEAN CORPUSCULAR VOLUME [2]: 64.2 fL | MONOCYTE [2]: 0.67% | NEUTROPHIL [2]: 7.33% | NUCLEATED RED BLOOD CELLS [2]: 0 /100WBC | PLATELET COUNT [2]: 1268.67 x10E3/uL | ALANINE AMINOTRANSFERASE [2]: 62.67 u/L | ALBUMIN [2]: 4.2 G/DL | ALKALINE PHOSPHATASE [2]: 453 u/L | ASPARTATE AMINOTRANSFERASE [2]: 76 u/L | BLOOD UREA NITROGEN [2]: 16 mg/dL | CARBON DIOXIDE [2]: 32.33 mmol/L | CHLORIDE [2]: 101.33 MEQ/L | CHOLESTEROL [2]: 46.67 mg/dL | CREATINE PHOSPHOKINASE [2]: 192 u/L | CREATININE [2]: 0.24 mg/dL | GLUCOSE [2]: 128 mg/dL | LACTATE DEHYDROGENASE [2]: 150 u/L | LIPASE [2]: 9.33 u/L | PHOSPHORUS [2]: 11.07 mg/dL | POTASSIUM [2]: 6.55 MEQ/L | SODIUM [2]: 147.2 MEQ/L | TOTAL BILIRUBIN [2]: 0.13 mg/dL | TOTAL PROTEIN [2]: 6 G/DL | URIC ACID [2]: 1.13 mg/dL | ABSOLUTE BASOPHIL [3]: 0 CELLS/uL | ABSOLUTE EOSINOPHIL [3]: 0 CELLS/uL | ABSOLUTE LYMPHOCYTE [3]: 15656 CELLS/uL | ABSOLUTE MONOCYTE [3]: 107.67 CELLS/uL | ABSOLUTE SEGMENTED NEUTROPHIL [3]: 603 CELLS/uL | BASOPHIL [3]: 0% | EOSINOPHIL [3]: 0% | ERYTHROCYTE COUNT [3]: 5.97 x10E6/uL | HEMATOCRIT [3]: 36.5% | HEMOGLOBIN [3]: 14.8 G/DL | LEUKOCYTE COUNT [3]: 16.37 x10E3/uL | LYMPHOCYTE [3]: 95.67% | MEAN CORPUSCULAR HEMOGLOBIN [3]: 24.83 pg | MEAN CORPUSCULAR HEMOGLOBIN CONCENTRATION [3]: 40.53 G/DL | MEAN CORPUSCULAR VOLUME [3]: 61.23 fL | MONOCYTE [3]: 0.67% | NEUTROPHIL [3]: 3.67% | NUCLEATED RED BLOOD CELLS [3]: 0 /100WBC | PLATELET COUNT [3]: 1304.33 x10E3/uL | ALANINE AMINOTRANSFERASE [3]: 82 u/L | ALBUMIN [3]: 4.47 G/DL | ALKALINE PHOSPHATASE [3]: 305.67 u/L | ASPARTATE AMINOTRANSFERASE [3]: 89.67 u/L | BLOOD UREA NITROGEN [3]: 17.33 mg/dL | CARBON DIOXIDE [3]: 22.33 mmol/L | CHLORIDE [3]: 102.33 MEQ/L | CHOLESTEROL [3]: 48 mg/dL | CREATINE PHOSPHOKINASE [3]: 264 u/L | CREATININE [3]: 0.43 mg/dL | GLUCOSE [3]: 145.33 mg/dL | LACTATE DEHYDROGENASE [3]: 298.67 u/L | LIPASE [3]: 12 u/L | PHOSPHORUS [3]: 10.97 mg/dL | POTASSIUM [3]: 6.62 MEQ/L | SODIUM [3]: 145.07 MEQ/L | TOTAL BILIRUBIN [3]: 0.13 mg/dL | TOTAL PROTEIN [3]: 6.77 G/DL | URIC ACID [3]: 2.07 mg/dL
